Results on three compounds are retold here after patent publication US7482355B2, “Pyrimidine derivatives as modulators of chemokine receptor activity” (AstraZeneca AB, priority 2002, dated 2009).

In this experiment the target is T1, hrCXCR2 (Homo sapiens, UniProt P25025).
T1 construct: expressed in transfected cells; host or cells: HEK 293 cells (ECACC No. 85120602), membranes of the highest expressing clone
T1 sequence (P25025 1-360): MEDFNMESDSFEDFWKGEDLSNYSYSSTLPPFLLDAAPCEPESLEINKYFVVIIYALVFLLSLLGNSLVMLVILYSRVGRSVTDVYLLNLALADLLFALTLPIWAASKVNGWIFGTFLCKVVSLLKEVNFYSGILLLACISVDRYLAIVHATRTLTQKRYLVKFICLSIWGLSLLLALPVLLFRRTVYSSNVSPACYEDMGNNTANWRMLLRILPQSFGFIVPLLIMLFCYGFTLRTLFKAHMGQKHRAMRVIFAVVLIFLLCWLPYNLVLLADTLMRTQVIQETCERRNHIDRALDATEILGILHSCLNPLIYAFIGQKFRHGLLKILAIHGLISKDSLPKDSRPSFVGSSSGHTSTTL
In words: Ligand binding assay, [125I]IL-8 displacement from membranes of HEK 293 cells expressing hrCXCR2. To be noted: [125I]IL-8 (~50 pM), HEK 293 hrCXCR2 membranes, 1.5 hours at room temperature. The source says:
[^125I]IL-8 (human, recombinant) was purchased from Amersham, U.K. with a specific activity of 2,000 Ci/mmol. All other chemicals were of analytical grade. High levels of hrCXCR2 were expressed in HEK 293 cells (human embryo kidney 293 cells ECACC No. 85120602) (Lee et al. (1992) J. Biol. Chem. 267 pp16283-16291). hrCXCR2 cDNA was amplified and cloned from human neutrophil mRNA. The DNA was cloned into PCRScript (Stratagene) and clones were identified using DNA. The coding sequence was sub-cloned into the eukauyotic expression vector RcCMV (Invitrogen). Plasmid DNA was prepared using Quiagen Megaprep 2500 and transfected into HEK 293 cells using Lipofectamine reagent (Gibco BRL). Cells of the highest expressing clone were harvested in phosphate-buffered saline containing 0.2% (w/v) ethylenediaminetetraacetic acid (EDTA) and centrifuged (200 g, 5 min.). The cell pellet was resuspended in ice cold homogenisation buffer [10 mM HEPES (pH 7.4), 1 mM dithiothreitol, 1 mM EDTA and a panel of protease inhibitors (1 mM phenyl methyl sulphonyl fluoride, 2 μg/ml soybean trypsin inhibitor, 3 mM benzamidine, 0.5 μg/ml leupeptin and 100 μg/ml bacitracin)] and the cells left to swell for 10 minutes. The cell preparation was disrupted using a hand held glass mortar/PTFE pestle homogeniser and cell membranes harvested by centrifugation (45 minutes, 100,000 g, 4° C.). The membrane preparation was stored at −70° C. in homogenisation buffer supplemented with Tyrode's salt solution (137 mM NaCl, 2.7 mM KCl, 0.4 mM NaH2PO4), 0.1% (w/v) gelatin and 10% (v/v) glycerol.
All assays were performed in a 96-well MultiScreen 0.45 μm filtration plates (Millipore, U.K.). Each assay contained ˜50 pM [^125I]IL-8 and membranes (equivalent to ˜200,000 cells) in assay buffer [Tyrode's salt solution supplemented with 10 mM HEPES (pH 7.4), 1.8 mM CaCl2, 1 mM MgCl2, 0.125 mg/ml bacitracin and 0.1% (w/v) gelatin]. […] The backing plate was removed from the MultiScreen plate assembly, the filters dried at room temperature, punched out and then counted on a Cobra γ-counter.
Compound `C[C@H](CO)Nc1cc(O)nc(SCc2cccc(Cl)c2)n1` [Example 3, 2-[(3-Chlorobenzyl)thio]-6-{[(1R)-2-hydroxy-1-methylethyl]amino}-4-pyrimidinol] had an IC50 of 794 nM. That is a sub-micromolar value.
As to `C[C@H](CO)Nc1nc(SCc2cccc(F)c2F)nc(O)c1SCc1ncon1` [Example 26, 2-[[(2,3-Difluorophenyl)methyl]thio]-6-[[(1R)-2-hydroxy-1-methylethyl]amino]-5-[(1,2,4-oxadiazol-3-ylmethyl)thio]-4-pyrimidinol], the IC50 is 100 nM.
In the case of `C[C@H](CO)Nc1nc(SCc2cccc(F)c2)nc(O)c1F` [Example 33, 2-[(3-fluorobenzyl)thio]-5-fluoro-6-{[(1R)-2-hydroxy-1-methylethyl]amino}pyrimidin-4-ol], the IC50 was 31.6 nM.
